This is an account of results in PMC3344887 (PLoS ONE, 2012).

One series is described as follows: clinical. On the procedure:
Identical placebo (lactose) capsules were prepared. […] Drugs were administered without food.
Plasma concentrations of copeptin were also determined in this study as reported elsewhere. […] No hydrolysis was performed. Thus, the values for HMMA represent the drug concentrations of the non-conjugated metabolite. All blood samples were collected on ice and centrifuged within 10 min at 4°C. The plasma was then stored at –20°C until the analysis.
Cmax and tmax were obtained directly from the observed concentration-time curves. […] Terminal elimination half-life (t 1/2) was calculated using λz and the equation t1/2 = ln2/λz. The area under the plasma concentration-time curve up to 6 h (AUC0-6h) was calculated using the linear trapezoidal rule. The AUC0–∞ was determined by extrapolation of AUC0–6h using λz. The PK parameters were determined using the PK functions for Excel (Microsoft, Redmont, CA, USA). Plasma concentrations were only determined up to 6 h after MDMA administration because the aim of the study was to assess potential changes in MDMA plasma levels while relevant pharmacodynamic effects or MDMA were present.

Another series relates to NE transporter. Particulars: no reference given; cited from earlier work.
For series [1], the target named is T1, DAT (Homo sapiens, UniProt Q01959). The series is described as follows: Radioligand binding, [3H]-WIN35,428, HEK 293 membranes. Set-up: expressed in transfected cells; host or cells: HEK 293 cells (Invitrogen), stably transfected.
Series [2] concerns the target T1, DAT. The series is described as follows: cell-based.
Series [3] deals with T2, NET (Homo sapiens, UniProt P23975). The series is described as follows: [3H]-NE uptake inhibition, method A (silicon oil). The series is classed as cell-based. Set-up: expressed in transfected cells; host or cells: HEK 293 cells (Invitrogen), stably transfected.
T2 sequence (P23975 whole entry): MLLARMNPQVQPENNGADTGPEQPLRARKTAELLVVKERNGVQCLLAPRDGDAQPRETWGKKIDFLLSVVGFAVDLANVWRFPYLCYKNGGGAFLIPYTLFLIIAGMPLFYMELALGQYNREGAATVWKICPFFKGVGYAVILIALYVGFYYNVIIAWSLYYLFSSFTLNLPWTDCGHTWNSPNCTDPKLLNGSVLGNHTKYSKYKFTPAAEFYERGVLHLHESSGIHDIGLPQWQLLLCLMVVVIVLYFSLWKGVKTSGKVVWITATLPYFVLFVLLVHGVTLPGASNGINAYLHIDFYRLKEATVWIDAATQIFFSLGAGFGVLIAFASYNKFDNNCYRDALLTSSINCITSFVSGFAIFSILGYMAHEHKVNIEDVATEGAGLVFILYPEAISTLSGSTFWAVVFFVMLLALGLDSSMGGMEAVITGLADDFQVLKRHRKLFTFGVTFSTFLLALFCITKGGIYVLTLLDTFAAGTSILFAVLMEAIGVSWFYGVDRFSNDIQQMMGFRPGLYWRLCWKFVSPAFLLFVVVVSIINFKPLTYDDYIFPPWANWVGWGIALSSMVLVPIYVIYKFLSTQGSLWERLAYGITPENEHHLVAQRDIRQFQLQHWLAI
For series [4], the target named is T2, NET. The series is described as follows: Radioligand binding, [3H]-nisoxetine, HEK 293 membranes. Set-up: expressed in transfected cells; host or cells: HEK 293 cells (Invitrogen), stably transfected.
Another series deals with NCCc1c[nH]c2ccc(O)cc12. The series is described as follows: cells, lysate or membranes. Particulars: other: method A.
Substrate in series [5]: NCCc1ccc(O)c(O)c1
The series is described as follows: cells, lysate or membranes. Conditions: other: method A.

Where [6] appears, read: Duloxetine-MDMA session, mean±SEM, n=16.
Where [7] appears, read: Placebo-MDMA session, mean±SEM, n=16.
The mark [8] stands for this setting: duloxetine-MDMA vs placebo-MDMA.

As a reminder, the Cmax is the highest concentration seen after dosing. Broadly, the Tmax is the time at which the peak concentration occurs. As to `CNC(C)Cc1ccc(O)c(OC)c1` (stereo not shown) [HMMA, 4-hydroxy-3-methoxymethamphetamine], the Cmax in the series “clinical” (Duloxetine-MDMA session (duloxetine 120 mg 16 and 4 h before MDMA 125 mg), plasma, mean±SEM, n=16) was 2.00 ± 0.38 ng/mL. Also, in the series “clinical” (setting [6]), the AUC0-6 is 8.14 ± 1.45 ng·h/mL and the Tmax is 1.89 ± 0.25 h. The molecule also registered a Cmax in “clinical” (Placebo-MDMA session (MDMA 125 mg), plasma, mean±SEM, n=16) of 3.36 ± 0.34 ng/mL. Moreover, in the series “clinical” (setting [7]), the AUC0-6 is 13.57 ± 1.58 ng·h/mL and the Tmax came to 1.84 ± 0.17 h. Moreover, in “clinical” (setting [8]), the “Decrease in AUC0-6h by duloxetine” value is listed as 48±6% and the “Decrease in Cmax by duloxetine” value is 46±6%.

As for `CNCCCN1c2ccccc2CCc2ccccc21` [desipramine], the “Block of thyramine-induced SBP responses” value in the series on NE transporter was “completely blocked”.

A word on the Ki: it is the dissociation constant of the complex between target and ligand, obtained from inhibition or displacement. Lower therefore signals tighter binding. The AUC(0-t) is the area under the concentration-time curve up to a stated or last time point. With `CC(N)Cc1ccc2c(c1)OCO2` (stereo not shown) [MDA, 3,4-methylenedioxyamphetamine], the Ki at DAT [1] was found to be 26.4 ± 4.24 µM; on DAT [2], 11 µM; on NET [3], 0.341 µM; at NET [4], 17.8 ± 4.06 µM. Besides, the Cmax was 10.7 ± 0.72 ng/mL in the series “clinical” (human, in vivo) and 11.8 ± 0.7 ng/mL in the series “clinical” (human, in vivo, 125 mg). Besides, in “clinical” (human, in vivo, AUC0-6), the AUC(0-t) was 46.6 ± 3.02 ng·h/mL. Besides, the Tmax in the series “clinical” (human, in vivo, Tmax) was 5.5 ± 0.22 h.

As usually defined, the Km is the substrate concentration at which the rate is half of its maximum. As to human SERT (Homo sapiens), the Km in the series with NCCc1c[nH]c2ccc(O)cc12 was 0.489 ± 0.147 µM.

B1: human DAT (Homo sapiens) (protein)
chain: MSKSKCSVGLMSSVVAPAKEPNAVGPKEVELILVKEQNGVQLTSSTLTNPRQSPVEAQDRETWGKKIDFLLSVIGFAVDLANVWRFPYLCYKNGGGAFLVPYLLFMVIAGMPLFYMELALGQFNREGAAGVWKICPILKGVGFTVILISLYVGFFYNVIIAWALHYLFSSFTTELPWIHCNNSWNSPNCSDAHPGDSSGDSSGLNDTFGTTPAAEYFERGVLHLHQSHGIDDLGPPRWQLTACLVLVIVLLYFSLWKGVKTSGKVVWITATMPYVVLTALLLRGVTLPGAIDGIRAYLSVDFYRLCEASVWIDAATQVCFSLGVGFGVLIAFSSYNKFTNNCYRDAIVTTSINSLTSFSSGFVVFSFLGYMAQKHSVPIGDVAKDGPGLIFIIYPEAIATLPLSSAWAVVFFIMLLTLGIDSAMGGMESVITGLIDEFQLLHRHRELFTLFIVLATFLLSLFCVTNGGIYVFTLLDHFAAGTSILFGVLIEAIGVAWFYGVGQFSDDIQQMTGQRPSLYWRLCWKLVSPCFLLFVVVVSIVTFRPPHYGAYIFPDWANALGWVIATSSMAMVPIYAAYKFCSLPGSFREKLAYAIAPEKDRELVDRGEVRQFTLRHWLKV
For the molecule B1, the Km in series [5] was determined as 1.707 ± 0.297 µM.
